Assays:
[1] = biological target: T1, eEF1A1 (RAW264.7 macrophages) (Mus musculus, UniProt P10126); assay: CETSA and DARTS with Western blot; competition of probe pull-down; format: biochemical; settings: RAW264.7 lysate or cells; Nef 200 µM (CETSA methods) or 10 µM (figure legend); DARTS 2.5-10 µM with pronase
T1 construct: endogenous protein in RAW264.7 cells or lysate, about 50 kDa band, identified by LC-MS/MS and Western blot
T1 sequence (P10126 2-462): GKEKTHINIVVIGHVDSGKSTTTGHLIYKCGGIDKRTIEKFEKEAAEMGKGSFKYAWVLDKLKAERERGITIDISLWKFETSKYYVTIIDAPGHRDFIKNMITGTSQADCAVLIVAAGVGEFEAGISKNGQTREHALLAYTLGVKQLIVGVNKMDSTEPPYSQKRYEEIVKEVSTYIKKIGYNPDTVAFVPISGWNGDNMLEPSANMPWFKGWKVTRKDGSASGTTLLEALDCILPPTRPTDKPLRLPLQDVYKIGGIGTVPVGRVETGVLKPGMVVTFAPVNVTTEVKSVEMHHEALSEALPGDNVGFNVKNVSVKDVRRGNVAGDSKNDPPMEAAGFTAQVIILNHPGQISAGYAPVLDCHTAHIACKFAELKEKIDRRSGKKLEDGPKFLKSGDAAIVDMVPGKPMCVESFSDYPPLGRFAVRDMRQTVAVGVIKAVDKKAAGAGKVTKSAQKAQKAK

[2] = biological target: T2, eEF1A1 (recombinant human eEF1A1) (Homo sapiens, UniProt P68104); assay: isothermal titration calorimetry (MicroCal PEAQ-ITC); format: binding
T2 sequence (P68104 1-462): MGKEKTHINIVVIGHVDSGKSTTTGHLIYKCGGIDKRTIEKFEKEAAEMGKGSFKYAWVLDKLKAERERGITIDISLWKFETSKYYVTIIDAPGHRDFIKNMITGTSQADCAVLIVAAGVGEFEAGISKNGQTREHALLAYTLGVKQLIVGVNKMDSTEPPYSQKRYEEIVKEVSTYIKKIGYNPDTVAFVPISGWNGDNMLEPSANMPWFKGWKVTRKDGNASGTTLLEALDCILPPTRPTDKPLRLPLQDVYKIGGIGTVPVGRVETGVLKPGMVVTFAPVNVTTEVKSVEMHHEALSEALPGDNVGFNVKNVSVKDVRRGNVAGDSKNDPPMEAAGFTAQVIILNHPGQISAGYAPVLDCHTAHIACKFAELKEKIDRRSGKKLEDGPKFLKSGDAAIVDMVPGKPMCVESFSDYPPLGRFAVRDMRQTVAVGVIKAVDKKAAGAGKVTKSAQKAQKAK
Excerpt: isothermal titration calorimetry (MicroCal PEAQ-ITC) on eEF1A1 (recombinant human eEF1A1) | ITC assay confirmed the affinity of Nef to eEF1A1 with the affinity constant of […]

Kd [2]: 4.83 µM
SMILES: COc1ccc(C[C@@H]2c3cc(Oc4cc(C[C@@H]5c6cc(OC)c(OC)cc6CCN5C)ccc4O)c(OC)cc3CCN2C)cc1 [neferine]
CETSA and DARTS with Western blot; competition of probe pull-down [1]: Nef administration protected the eEF1A1 protein from temperature‐dependent degradation in cell lysis
